The text below walks through data of US10537103B2, “Antibacterial composition containing an isomer mixture of monosaccharide alkyl monoacetals or monoethers” (TEREOS STARCH & SWEETENERS BELGIUM, priority 2014, dated 2020).

The structures appear in SMILES notation. In brackets after ≈: the same amount, converted by molar mass.

The test system of series [1] is L. monocytogenes (CIP 103575). Put plainly: Minimum inhibitory concentration (MIC), 96-well microplate microdilution. It counts as cell-based. Conditions: Listeria monocytogenes, CIP103575, 18 h at 37° C. On the procedure: (§1) The bacteriostatic properties of the derivatives are evaluated by measuring their minimum inhibitory concentration (MIC) on the bacteria tested. These measurements are made using the 96-well microplate microdilution method according to the conditions defined below.
(§2) The minimum inhibitory concentrations (MIC) are tested on Gram-positive bacterial strains according to the recommendations of the “Clinical Laboratory Standards Institute” (Clinical-Laboratory-Standards-Institute, 6th ed. Approved standard M100-S17. CLSI, Wayne, Pa., 2007).
(§3) The Gram-positive bacteria studied are as follows: L. monocytogenes (CIP 103575), E. faecalis (ATCC® 29212™) and S. aureus (ATCC® 292213™).
(§4) The cultures studied, freshly isolated (after incubation on a blood agar at 37° C. for 18 h), are taken up in sterile water (10 mL) until obtaining a 0.5 McFarland (Mc) suspension i.e. 1 to 2×10^8 CFU (bacteria)/cm^3. The bacterial suspension was then diluted to obtain a final concentration of 5×10^5 CFU/cm^3.
(§5) Each well contains an identical quantity of Mueller-Hinton medium (a rich medium for bacterial culture) and bacteria with final 5×10^5 CFU/cm^3.
(§6) The test compounds of interest are solubilized in 2.5% m of ethanol before being diluted to different concentrations two by two.
(§7) On the multiwell plate, a first series has been planned comprising the culture medium without the test compound of interest. It corresponds to the growth control (control well). These controls serve as reference for comparing bacterial growth with that of the subsequent wells comprising different concentrations of the test compound of interest. The second series of wells comprises the mother solution for the test compound of interest for a concentration in the wells of 4 mM. Each series of wells was diluted two by two until the last series for a final concentration of 0.003 mM. Each concentration is duplicated in the same plate. The plate is incubated for 18 h at 37° C. […] If there is antibacterial activity, the bacterial growth is inhibited, which means that no turbidity or bacterial residue is present.
(§8) Tests have been conducted on Gram-positive bacteria with methyl glucopyranoside derivatives. […] After sterilization the solutions are diluted in water. […] Because precipitates formed in the solutions, the effect of these methyl glucopyranoside C10 and C12 acetals was not able to be evaluated. The results obtained for antimicrobial tests on the 3 bacterial strains L. monocytogenes (CIP 103575), E. faecalis (ATCC® 29212) and S. aureus (ATCC® […]) are summarized in Table 1.
(§9) The sorbitan C5, C6, C8, C10 and C12 acetals and ethers were then tested under the same conditions as previously and on the same bacterial strains (see example 5).
Background: Broth dilution looks for growth in wells or tubes with falling amounts of substance.

A further series has as its system S. aureus (ATCC 292213). The series is described as above. In kind it is cell-based. Conditions: Staphylococcus aureus, ATCC292213, 18 h at 37° C. The procedure:
as §1, §2, §3, §4, §5, §6, §7, §8, §9

Another series deals with E. faecalis (ATCC 29212). The description is as above. It counts as cell-based. Conditions: 18 h at 37° C.; for MIC: Enterococcus faecalis, ATCC29212, 18 h. The procedure:
as §1, §2, §3, §4, §5, §6, §7, §8, §9

Series [2] deals with Gram-positive bacteria (L. monocytogenes, E. faecalis, S. aureus). Nature of the series: MIC / antimicrobial activity stated for the Gram-positive strains studied together. In kind it is cell-based. Conditions: concentrations less than or equal to 4 mM. The procedure:
as §1, §2, §3, §4
Each well contains an identical quantity of Mueller-Hinton medium (a rich medium for bacterial culture) and bacteria with final 5×10^5 CFU/cm^3. […]
Tests have been conducted on Gram-positive bacteria with methyl glucopyranoside derivatives. […] Because precipitates formed in the solutions, the effect of these methyl glucopyranoside C10 and C12 acetals was not able to be evaluated. […]

Another series relates to L. monocytogenes. Conditions: cited from earlier work.
A further series deals with S. aureus. Conditions: cited from earlier work.
Series [3] is described as follows: Water solubility of test solutions. It counts as physicochemical. Conditions: solutions diluted in water, 2.5% m ethanol; precipitates formed. The procedure: as §8

Take `CCCCCC1OCC2O[C@H](OC)C(O)C(O)[C@@H]2O1` (stereo partly drawn) [Compound 1b, Methyl 4,6-O-Hexylidene α-D-glucopyranoside]: the MIC (in series [1]; against S. aureus (ATCC 292213); in the series on E. faecalis (ATCC 29212)) was above 4 mM in each case.

Turning to `CCCCCCCCCCCC=O` [dodecanal], the “antimicrobial activity on the different bacterial strains” value in series [2] is “no antimicrobial activity”.

As to `CCCCCCCCCCCC(=O)OCC(O)CO` (centres unmarked) [ML, monolaurine], in the series on L. monocytogenes, the “Minimum inhibitory concentration (MIC) L. monocytogenes, compounds known in the prior art” value is 0.04 mM (≈ 11 µg/mL). In addition, the “Minimum inhibitory concentration (MIC) S. aureus, compounds known in the prior art” value with S. aureus was 0.04 mM (≈ 11 µg/mL).

Take `CCCCCCCCCCCC1OCC2O[C@H](OC)C(O)C(O)[C@@H]2O1` (stereo partly drawn) [Compound 1g, Methyl 4,6-O-Dodecylidene α-D-mannopyranoside]: the melting point (as a rule, the temperature of the solid-liquid transition) was found to be 104 °C.

`CCCCCCCCCC1OCC2O[C@H](OC)C(O)C(O)[C@@H]2O1` (stereo partly drawn) [Compound 1d, Methyl 4,6-O-Decylidene α-D-glucopyranoside] showed a melting point of 72 °C. The water solubility result in series [3] is given as “low water solubility”.

In the case of `CCCCCCCC1OCC2O[C@H](OC)C(O)C(O)[C@@H]2O1` (stereo partly drawn) [Compound 1c, Methyl 4,6-O-Octylidene α-D-glucopyranoside], the MIC (as a rule, the lowest concentration found to suppress growth) in series [1] is 2 mM (≈ 609 µg/mL); against S. aureus (ATCC 292213), 4 mM (≈ 1220 µg/mL); in the series on E. faecalis (ATCC 29212) it was 2 mM (≈ 609 µg/mL). The “Minimum inhibitory concentration (MIC) E. faecalis” value in the series on E. faecalis (ATCC 29212) (listed as AcC8 MeGlu) was found to be 4 mM (≈ 1220 µg/mL).

For `CCCCCCCCCCCC1OCC2O[C@H](OC)C(O)C(O)[C@H]2O1` (stereo partly drawn) [Compound 1h, Methyl 4,6-O-Dodecylidene α-D-galactopyranoside], the melting point stood at 115 °C.

Turning to `CCCCC1OCC2O[C@H](OC)C(O)C(O)[C@@H]2O1` (stereo partly drawn) [Compound 1a, Methyl 4,6-O-pentylidene α-D-glucopyranoside], the MIC (in series [1]; in the series on S. aureus (ATCC 292213); in the series on E. faecalis (ATCC 29212)) was above 4 mM each time.
